Data taken from PubChem BioAssay (NCI).
“And” between values parts separate entries of the source, which are not always exact repeats. Equal values may be shown once.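 In this assay, cells in 96-well plates receive the compound at five concentrations for 48 hours. Endpoints are linearly interpolated between the surrounding concentrations. Here, GI50 denotes the concentration required for 50% inhibition of growth. TGI marks complete inhibition of growth.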

Experiments:
Test in all cases: growth of human tumour cells (NCI), 48 h
HCT-116 colon = test system: HCT-116 colon
HCT-15 colon = test system: HCT-15 colon
NCI-H460 lung = test system: NCI-H460 lung
OVCAR-3 ovarian = test system: OVCAR-3 ovarian
MDA-MB-435 = test system: MDA-MB-435
TK-10 renal = test system: TK-10 renal
HOP-62 NSCLC = test system: HOP-62 NSCLC
KM12 colon = test system: KM12 colon
PC-3 prostate = test system: PC-3 prostate
786-0 renal = test system: 786-0 renal

SMILES	GI50 (HCT-116 colon) [µM]	TGI (HCT-116 colon) [µM]	GI50 (HCT-15 colon) [µM]	TGI (HCT-15 colon) [µM]	GI50 (NCI-H460 lung)	TGI (NCI-H460 lung) [µM]	GI50 (OVCAR-3 ovarian) [µM]	TGI (OVCAR-3 ovarian) [µM]	GI50 (MDA-MB-435) [µM]	TGI (MDA-MB-435) [µM]	GI50 (TK-10 renal)	TGI (TK-10 renal)	GI50 (HOP-62 NSCLC)	TGI (HOP-62 NSCLC)	GI50 (KM12 colon) [µM]	TGI (KM12 colon) [µM]	GI50 (PC-3 prostate) [µM]	TGI (PC-3 prostate) [µM]	GI50 (786-0 renal) [µM]	TGI (786-0 renal) [µM]
COc1ccc(-n2ccnc2-c2cc(OC)c(OC)c(OC)c2)cc1	3.9	> 100	1.53	> 100	2.37 µM	> 100	1.58	5.03	0.303	1.32	4.19 µM	85 µM	3.59 µM	> 100 µM	4.59	> 100	3.3	> 100	5.65	> 100
O=C1c2ccccc2-c2c1c1ccccc1c(=O)n2CCCNCCCCNCCCN1C(=O)c2ccccc2C2C(=O)c3ccccc3C21 (stereo not drawn)	0.0231	0.421	0.229	0.853	0.0426 µM	2.39	0.212	0.87	0.805	2.83	0.614 µM	1.45 µM	0.273 µM	1.08 µM	0.27	1.41	0.512	1.24	0.0786	0.782
O=C(Nc1ccc(/C=C/c2ccc(NC(=O)c3cc(S(=O)(=O)O)c4cccnc4c3O)cc2S(=O)(=O)O)c(S(=O)(=O)O)c1)c1cc(S(=O)(=O)O)c2cccnc2c1O	4.54	> 43.3	> 41.6	> 71.5	22.9 µM	> 76.9	> 56.9	> 72.2	> 56.7	> 74.1	48.4 µM	> 71.4 µM	10.9 µM	> 66.1 µM	42.8	> 67.7	32.2	> 78.3	4.86	> 54.5
O=C1OCC2=C1C(c1ccc(Cl)c(Cl)c1)c1cc3c(cc1N2CCO)CCC3 (stereo not drawn)	0.234	6.59	0.215	20.3	0.186 µM	6.03	0.145	0.509	0.0611	0.183	0.312 µM	13.2 µM	0.229 µM	9.26 µM	0.181	6.57	0.163	8.76	0.242	10.2
CC(=O)N1N=C2/C(=C/c3ccc(Cl)cc3)CC(C)CC2C1c1ccc(Cl)cc1 (stereo not drawn)	12.6	25.2	31.9	> 100	18.5 µM	41.8	20	53.9	30.9	> 100	37.2 µM	> 100 µM	22.1 µM	54.6 µM	21.4	67.1	12.8	> 100	18.2	39.1
O=C(Nc1ccccc1)c1cc(S(=O)(=O)Nc2nc3ccccc3o2)c(SCc2ccccc2)cc1Cl	25.1	66.1	17	34	20.8 µM	77	19.9	40	19	37.7	13.9 µM	28.2 µM	20.2 µM	42.5 µM	16.7	32.6	21.7	46.7	17.3	38.2
COc1ccc(C2=NN(C(=O)c3cc(OC)c(OC)c(OC)c3)C(c3ccc(N(C)C)cc3)C2)cc1 (stereo not drawn)	0.439	–	0.426	> 100	0.397 µM	–	0.284	4.7	0.205	0.478	0.682 µM	> 100 µM	0.57 µM	–	0.46	> 100	0.529	> 100	0.295	–
COc1ccc(C2C=C(c3ccc4c(c3)OCO4)Oc3c2c(=O)oc2ccccc32)cc1OC (stereo not drawn)	–	> 100	–	> 100	–	> 100	–	15.5	–	0.529	–	> 78.1 µM	–	> 100 µM	–	> 100	–	> 100	–	> 100
Cc1ccc(Cl)c(Nc2ccccc2C(=O)O)c1Cl	19.6	44.9	22.7	54.2	25.9 µM	69.4	20.3	37.9	23.8	85.3	29.2 µM	86 µM	31.3 µM	> 100 µM	29.3	77.1	29.9	> 100	23	64.3
Cc1cc(C(C)(C)C)cc(CNC2CCCCC2)c1O	–	28.8	–	31.4	–	28.4	–	34.2	–	43.4	–	29.7 µM	–	47.6 µM	–	46.3	–	31	–	30
O=C(O)c1ccc(C(=O)O)c(C(=O)Nc2ccc3c(c2)C(=O)c2ccccc2-3)c1	–	> 100	–	> 100	–	> 100	–	> 100	–	> 100	–	> 100 µM	–	> 100 µM	–	> 100	–	> 100	–	> 100
Cn1c(NCC(O)CN2CCCC2)cc(=O)n(C)c1=O (stereo not drawn)	> 100	> 100	> 100	> 100	> 100 µM	> 100	> 100	> 100	> 100	> 100	> 100 µM	> 100 µM	> 100 µM	> 100 µM	> 100	> 100	> 100	> 100	> 100	> 100
CC1OC(OC2C(OC3CCC4(C)C(CCC5(C)C4CC=C4C6CC(C)(C)CCC6(C(=O)O)CCC45C)C3(C)CO)OCC(O)C2O)C(O)C(O)C1O (stereo not drawn)	–	> 100	–	42.1	–	43	–	81.9	–	43	–	40.8 µM	–	> 100 µM	–	21.7	–	29.1	–	> 100
CCCCCCCCn1ccc2cc(NC(=O)Cn3cc(CN4CCCCC4)nn3)ccc21	1.7	3.19	1.96	4.11	1.89 µM	3.67	3.42	13.3	1.68	3.15	2.44 µM	6.63 µM	1.89 µM	3.75 µM	2.23	5	1.43	3.05	1.8	3.44
COc1cc(-c2c(C#N)c(N)nc(N3CCOCC3)c2C#N)cc(OC)c1OC	86.5	> 100	> 100	> 100	> 100 µM	> 100	68.8	> 100	> 100	> 100	> 100 µM	> 100 µM	30.9 µM	> 100 µM	> 100	> 100	> 100	> 100	> 100	> 100
Cn1c(/C=C/[N+](=O)[O-])cc2ccccc21	1.04	2.45	3.24	11.2	3.77 µM	20.9	1.66	3.49	1.69	4.34	4.04 µM	14.9 µM	8.39 µM	27.6 µM	1.69	3.15	6.75	35.5	2.15	4.08
COc1cc2c(cc1OC)C1Cc3cc(OC)c(OC)cc3C(C2)N1C	–	> 75	–	> 100	30.3 µM and 78.9 µM	> 100	–	> 100	–	> 75	36.3 µM and > 100 µM	> 100 µM	–	> 100 µM	–	> 100	–	> 75	–	> 100
CC(=O)OC12COC1CC(O)C1(C)C(=O)C(O)C3=C(C)C(O)CC(O)(C(OC(=O)c4ccccc4)C21)C3(C)C (stereo not drawn)	–	> 73.6	–	> 100	–	> 100	–	> 39.2	–	1.48	–	> 100 µM	–	> 100 µM	1.22	> 100	–	> 28.5	–	> 100
O=C1c2cccc(NCCN=Cc3ccccc3O)c2C(=O)c2c(NCCN=Cc3ccccc3O)cccc21	0.387	–	2.23	12	0.399 µM	1.52	0.514	2.09	1.16	2.87	1.71 µM	5.52 µM	0.663 µM	3.89 µM	0.353	1.44	1.03	5.87	0.865	3.76
COc1ccc(C2C(C)C(=O)C(C)C(c3ccc(OC)cc3)N2N=O)cc1 (stereo not drawn)	–	455	> 750	> 1000	> 750 µM	> 1000	> 750	> 1000	–	343	147 µM	488 µM and 245 µM	24.8 µM and 23.9 µM	> 80 µM and 60.7 µM and 293 µM	–	> 1000	–	> 1000	–	467
